ChEMBL document CHEMBL4368927, “A review on flavones targeting serine/threonine protein kinases for potential anticancer drugs” (Bioorg Med Chem, 2019)
pIC50: −log10 of the molar value.

Experiments:
Protein kinase C (PKC) = experiment: Inhibition of PKC in rat brain homogenate using FKKSFKL-NH2 as substrate preincubated for 10 mins followed by substrate addition and measured after 5 mins in presence of [gamma-32P]ATP by liquid scintillation counting analysis; assay type: tissue-based
[1] = biological target: Protein kinase C (PKC) (Rattus norvegicus) (UniProt P05696+P68403+P09216+P63319+P09215+Q64617+Q9WTQ0+P09217); experiment: Inhibition of PKC in rat brain homogenate at 50 uM using FKKSFKL-NH2 as substrate preincubated for 10 mins followed by substrate addition and measured after 5 mins in presence of [gamma-32P]ATP by liquid scintillation counting analysis relative to control; assay type: tissue-based
HT-29 = experiment: Antiproliferative activity against human HT-29 cells assessed as reduction in [3H]-thymidine incorporation after 48 hrs by liquid scintillation assay; assay type: functional, cell-based
[2] = biological target: Cyclin-dependent kinase 2/cyclin E1 (Homo sapiens, UniProt P24941); experiment: Inhibition of human CDK2/cyclin E expressed in baculovirus expression system after 30 mins in presence of [gamma-33P]ATP by scintillation counting analysis
[3] = biological target: Cyclin-dependent kinase 4 (Homo sapiens, UniProt P11802); experiment: Inhibition of human CDK4
[4] = biological target: Cyclin-dependent kinase 1 (Homo sapiens, UniProt P06493); experiment: Inhibition of human CDK1
[5] = biological target: Cyclin-dependent kinase 6 (Homo sapiens, UniProt Q00534); experiment: Inhibition of human CDK6
[6] = biological target: Proto-oncogene tyrosine-protein kinase Src (Homo sapiens, UniProt P12931); experiment: Inhibition of pp60 src (unknown origin)
[7] = biological target: Mitogen-activated protein kinase 3 (Homo sapiens, UniProt P27361); experiment: Inhibition of Erk-1 (unknown origin)
[8] = Inhibition of protein kinase A (unknown origin); set-up: species or system Homo sapiens
[9] = Inhibition of CDK6/cyclin D (unknown origin); set-up: species or system Homo sapiens
CDK7/Cyclin H/MNAT1 = CDK7/Cyclin H/MNAT1 (Homo sapiens, UniProt P50613); experiment: Inhibition of recombinant human full length C-terminal His6-tagged and N-terminal GST-tagged CDK7/cyclinH/MAT1 expressed in baculovirus Sf21 insect cells after 40 mins in presence of [gamma-32P]ATP by scintillation counting analysis
[10] = biological target: Serine/threonine-protein kinase pim-1 (Homo sapiens) (UniProt P11309)
Chain of Serine/threonine-protein kinase pim-1 (Homo sapiens) (P11309 whole entry, looked up): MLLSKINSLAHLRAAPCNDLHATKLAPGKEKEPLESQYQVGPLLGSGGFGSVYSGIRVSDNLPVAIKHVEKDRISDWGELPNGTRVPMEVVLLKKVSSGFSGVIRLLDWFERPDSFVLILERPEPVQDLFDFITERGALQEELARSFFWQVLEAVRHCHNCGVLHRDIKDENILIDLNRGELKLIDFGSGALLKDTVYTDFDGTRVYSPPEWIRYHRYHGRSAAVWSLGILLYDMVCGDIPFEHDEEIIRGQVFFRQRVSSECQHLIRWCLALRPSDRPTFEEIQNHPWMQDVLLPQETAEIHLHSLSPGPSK
Description: Inhibition of PIM1 in human RWPE2 cells assessed as inhibition of cell growth

Chain of CDK7/Cyclin H/MNAT1 (P51946 whole entry): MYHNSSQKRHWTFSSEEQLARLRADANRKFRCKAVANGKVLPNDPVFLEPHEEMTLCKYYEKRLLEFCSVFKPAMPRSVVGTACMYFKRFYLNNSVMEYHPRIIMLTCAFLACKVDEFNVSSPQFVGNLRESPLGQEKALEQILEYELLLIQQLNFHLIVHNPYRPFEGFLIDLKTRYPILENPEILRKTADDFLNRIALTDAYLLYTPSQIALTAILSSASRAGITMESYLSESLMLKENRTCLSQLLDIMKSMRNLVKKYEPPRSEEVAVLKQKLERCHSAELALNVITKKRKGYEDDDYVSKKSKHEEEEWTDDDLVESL
Chain of CDK7/Cyclin H/MNAT1 (P50613 whole entry): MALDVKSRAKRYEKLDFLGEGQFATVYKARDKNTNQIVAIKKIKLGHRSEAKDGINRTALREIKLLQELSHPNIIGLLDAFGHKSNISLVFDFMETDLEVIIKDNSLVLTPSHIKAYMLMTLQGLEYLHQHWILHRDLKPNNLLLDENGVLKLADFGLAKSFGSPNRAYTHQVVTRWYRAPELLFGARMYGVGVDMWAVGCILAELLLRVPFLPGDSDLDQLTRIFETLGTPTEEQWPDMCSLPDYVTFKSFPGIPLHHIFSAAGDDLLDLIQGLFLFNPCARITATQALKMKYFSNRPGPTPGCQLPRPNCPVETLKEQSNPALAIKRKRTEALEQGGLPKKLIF
Chain of CDK7/Cyclin H/MNAT1 (P51948 whole entry, further chain): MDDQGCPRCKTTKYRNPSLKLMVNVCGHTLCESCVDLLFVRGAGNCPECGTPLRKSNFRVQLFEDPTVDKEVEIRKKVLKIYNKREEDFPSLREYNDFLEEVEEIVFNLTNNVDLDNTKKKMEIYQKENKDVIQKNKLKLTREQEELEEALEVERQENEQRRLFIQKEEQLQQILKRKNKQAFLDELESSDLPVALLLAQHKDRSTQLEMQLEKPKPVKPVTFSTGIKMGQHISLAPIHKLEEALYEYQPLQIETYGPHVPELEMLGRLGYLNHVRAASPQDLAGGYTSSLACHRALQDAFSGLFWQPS
Chain of Proto-oncogene tyrosine-protein kinase Src (P12931 2-536 limits assumed): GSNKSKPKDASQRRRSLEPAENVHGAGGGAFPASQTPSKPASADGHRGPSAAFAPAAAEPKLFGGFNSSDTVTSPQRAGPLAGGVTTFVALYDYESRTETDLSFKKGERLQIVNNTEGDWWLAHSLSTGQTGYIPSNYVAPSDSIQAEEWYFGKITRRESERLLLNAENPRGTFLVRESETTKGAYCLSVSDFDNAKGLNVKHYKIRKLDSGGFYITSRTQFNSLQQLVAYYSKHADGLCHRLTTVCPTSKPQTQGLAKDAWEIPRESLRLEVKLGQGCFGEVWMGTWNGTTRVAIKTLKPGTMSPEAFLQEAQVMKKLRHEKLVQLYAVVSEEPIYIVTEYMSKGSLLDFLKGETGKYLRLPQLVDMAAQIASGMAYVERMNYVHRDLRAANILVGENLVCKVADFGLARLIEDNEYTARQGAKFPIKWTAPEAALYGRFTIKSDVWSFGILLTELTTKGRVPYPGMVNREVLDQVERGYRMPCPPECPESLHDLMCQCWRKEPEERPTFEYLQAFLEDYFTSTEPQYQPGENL
Chain of Cyclin-dependent kinase 6 (Q00534 whole entry): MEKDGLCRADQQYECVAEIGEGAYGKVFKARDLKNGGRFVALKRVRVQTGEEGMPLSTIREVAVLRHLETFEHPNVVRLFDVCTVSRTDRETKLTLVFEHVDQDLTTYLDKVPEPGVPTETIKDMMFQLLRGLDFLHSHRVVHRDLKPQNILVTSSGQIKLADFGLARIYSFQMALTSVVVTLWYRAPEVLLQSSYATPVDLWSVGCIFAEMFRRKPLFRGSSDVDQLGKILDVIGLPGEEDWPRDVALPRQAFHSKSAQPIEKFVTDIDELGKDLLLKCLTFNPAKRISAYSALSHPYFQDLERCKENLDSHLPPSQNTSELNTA
Chain of Cyclin-dependent kinase 4 (P11802 whole entry): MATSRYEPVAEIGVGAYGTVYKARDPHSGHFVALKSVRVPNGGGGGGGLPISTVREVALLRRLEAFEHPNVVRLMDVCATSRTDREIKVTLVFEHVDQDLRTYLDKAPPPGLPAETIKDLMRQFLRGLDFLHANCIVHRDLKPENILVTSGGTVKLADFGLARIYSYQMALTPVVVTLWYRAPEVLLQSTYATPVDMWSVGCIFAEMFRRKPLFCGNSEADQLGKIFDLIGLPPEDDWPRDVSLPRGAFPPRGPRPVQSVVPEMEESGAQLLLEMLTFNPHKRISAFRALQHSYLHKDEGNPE
Chain of Cyclin-dependent kinase 1 (P06493 whole entry): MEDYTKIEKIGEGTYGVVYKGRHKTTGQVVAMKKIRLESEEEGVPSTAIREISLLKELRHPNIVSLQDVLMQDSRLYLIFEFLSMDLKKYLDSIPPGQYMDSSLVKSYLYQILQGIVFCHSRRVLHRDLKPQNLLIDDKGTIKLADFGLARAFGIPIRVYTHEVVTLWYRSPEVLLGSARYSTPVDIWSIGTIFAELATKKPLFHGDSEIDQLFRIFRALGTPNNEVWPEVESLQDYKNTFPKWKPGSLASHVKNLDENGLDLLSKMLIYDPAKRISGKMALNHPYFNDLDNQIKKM
Chain of Mitogen-activated protein kinase 3 (P27361 whole entry): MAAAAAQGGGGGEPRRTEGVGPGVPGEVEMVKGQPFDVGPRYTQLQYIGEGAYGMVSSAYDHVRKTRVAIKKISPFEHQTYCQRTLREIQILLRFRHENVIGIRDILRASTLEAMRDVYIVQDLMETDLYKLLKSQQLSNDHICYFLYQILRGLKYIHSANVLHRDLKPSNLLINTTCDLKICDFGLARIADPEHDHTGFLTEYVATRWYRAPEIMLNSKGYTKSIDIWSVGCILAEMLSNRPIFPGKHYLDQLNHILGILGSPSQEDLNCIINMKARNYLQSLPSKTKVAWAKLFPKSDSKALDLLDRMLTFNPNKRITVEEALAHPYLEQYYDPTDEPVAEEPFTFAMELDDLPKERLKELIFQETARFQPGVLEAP

Compound O=c1c(O)c(-c2cc(O)c(O)c(O)c2)oc2cc(O)cc(O)c12 [MYRICETIN] has an IC50 (Protein kinase C (PKC)) of 7.8 µM.
O=c1c(O)c(-c2ccc(O)c(O)c2)oc2cc(O)ccc12 showed an inhibition [1] of 85%.
With CN1CC[C@@H](c2c(O)cc(O)c3c(=O)cc(-c4ccccc4Cl)oc23)[C@@H]1CO the pIC50 (HT-29) was 6.24 and the pIC50 [2] was 5.55.
CN1CC[C@H](c2c(O)cc(O)c3c(=O)cc(-c4ccccc4Cl)oc23)[C@H]1CO showed a pIC50 (HT-29) of 4.75 and a pIC50 [2] of 4.68.
O=c1c(O)c(-c2ccc(O)c(O)c2)oc2cc(O)cc(O)c12 showed an inhibition [1] of 64%.
In the case of CN1CC[C@@H](c2c(O)cc(O)c3c(=O)cc(-c4ccc(C(F)(F)F)cc4Cl)oc23)[C@@H]1CO [VORUCICLIB], the pIC50 [3] was greater than 7.00, the pIC50 [4] was greater than 7.00 and the pIC50 [5] was greater than 7.00.
With CN1CC[C@H](c2c(O)cc(O)c3c(=O)cc(-c4ccccc4Cl)oc23)[C@H](O)C1 [ALVOCIDIB] the pIC50 [6] was 4.47, the pIC50 [7] was 4.80 and the pIC50 [8] was 3.84 to 3.91. It also gave a pIC50 [9] of 7.22.
Work on CN1CC[C@@H](c2c(O)cc(O)c3c(=O)cc(-c4ccc([N+](=O)[O-])cc4Cl)oc23)[C@@H]1CO yielded a pIC50 (HT-29) of 5.92 and a pIC50 [2] of 5.77.
O=c1cc(-c2ccc(O)c(O)c2)oc2cc(O)cc(O)c12 showed an inhibition [1] of 70%.
COc1c(O)cc(O)c2c(=O)cc(-c3ccccc3)oc12 [WOGONIN] showed a pIC50 (CDK7/Cyclin H/MNAT1) of 4.91.
In the case of O=c1c(O)c(-c2ccc(O)c(O)c2)oc2cc(O)c(O)c(O)c12, the ED50 [10] was 5.5 µM.
